According to ChEMBL document CHEMBL4680217, “Discovery of PROTAC BCL-X degraders as potent anticancer agents with low on-target platelet toxicity” (Eur J Med Chem, 2020):
Active and inactive are the calls of the source. The rule behind the calls is not given here.

What was measured:
[1] = target: T1, Protein cereblon/Bcl-2-like protein 1 (Homo sapiens, UniProt Q07817+Q96SW2); assay: Protac activity at CRBN/BCL-XL in human MOLT-4 cells assessed as induction of BCL-XL degradation measured after 16 hrs by immunoblotting analysis; assay type: cell-based
MOLT-4 [2] = assay: Antiproliferative activity against human MOLT-4 cells assessed as reduction in cell viability measured after 48 hrs by MTS assay; assay type: functional, cell-based; details: MOLT-4, 48 h
[3] = target: T1, Protein cereblon/Bcl-2-like protein 1; assay: Protac activity at CRBN/BCL-XL in human MOLT-4 cells assessed as induction of BCL-XL degradation by measuring remaining BCL-XL level at 50 nM measured after 16 hrs by immunoblotting analysis relative to control; assay type: cell-based
[4] = target: Protein cereblon/Apoptosis regulator Bcl-2 (Homo sapiens) (UniProt P10415+Q96SW2); assay: Protac activity at CRBN/BCL2 in human MOLT-4 cells assessed as induction of BCL2 degradation at 50 nM measured after 16 hrs by immunoblotting analysis; assay type: cell-based
MOLT-4 [5] = assay: Potency index, ratio of ABT-263 IC50 to test compound IC50 for antiproliferative activity against human MOLT-4 cells assessed as reduction in cell viability measured after 48 hrs by MTS assay; assay type: functional
RS4-11 = assay: Antiproliferative activity against human RS4-11 cells assessed as reduction in cell viability measured after 48 hrs by MTS assay; assay type: functional, cell-based; details: RS4-11, 48 h
NCI-H146 = assay: Antiproliferative activity against human NCI-H146 cells assessed as reduction in cell viability measured after 48 hrs by MTS assay; assay type: functional, cell-based; details: NCI-H146, 48 h
[6] = Toxicity in human platelet assessed as reduction in cell viability measured after 48 hrs by MTS assay; assay type: tissue-based; details: human platelets
[7] = Selectivity index, ratio of IC50 for human platelet to IC50 for human MOLT-4 cells
[8] = target: T1, Protein cereblon/Bcl-2-like protein 1; assay: Protac activity at CRBN/BCL-XL in human MOLT-4 cells assessed as induction of BCL-XL degradation at 100 nM measured within 2 hrs by immunoblotting analysis; assay type: cell-based
[9] = target: T1, Protein cereblon/Bcl-2-like protein 1; assay: Protac activity at CRBN/BCL-XL in human MOLT-4 cells assessed as induction of BCL-XL degradation at 100 nM measured after 8 hrs by immunoblotting analysis relative to control; assay type: cell-based
[10] = target: T1, Protein cereblon/Bcl-2-like protein 1; assay: Protac activity at CRBN/BCL-XL in human MOLT-4 cells assessed as induction of BCL-XL degradation at 100 nM preincubated for 16 hrs followed by compound washout by immunoblotting analysis; assay type: cell-based
[11] = target: T1, Protein cereblon/Bcl-2-like protein 1; assay: Protac activity at CRBN/BCL-XL in human MOLT-4 cells assessed as induction of BCL-XL degradation at 10 to 100 nM measured after 16 hrs in presence of competitive CRBN ligand pomalidomide by immunoblotting analysis; assay type: cell-based; details: dose 10-100 nM
[12] = target: T1, Protein cereblon/Bcl-2-like protein 1; assay: Protac activity at CRBN/BCL-XL in human MOLT-4 cells assessed as induction of BCL-XL degradation at 3.7 to 300 nM measured after 16 hrs in presence of proteasome inhibitor MG-132 by immunoblotting analysis; assay type: cell-based; details: dose 3.7-300 nM
[13] = target: T1, Protein cereblon/Bcl-2-like protein 1; assay: Protac activity at CRBN/BCL-XL in human platelet assessed as induction of BCL-XL degradation up to 1 uM measured after 16 hrs by immunoblotting analysis; details: dose microM <=1, time 16.0 hrs
[14] = Ratio of IC50 for human MOLT-4 cells in presence of pomalidomide to IC50 for human MOLT-4 cells; assay type: functional
MOLT-4 [15] = assay: Induction of apoptosis in human MOLT-4 cells assessed as increase in cleaved PARP expression measured after 16 hrs by immunoblotting analysis; assay type: functional, cell-based
MOLT-4 [16] = assay: Induction of apoptosis in human MOLT-4 cells assessed as increase in cleaved caspase-3 expression measured after 16 hrs by immunoblotting analysis; assay type: functional, cell-based
MOLT-4 [17] = assay: Induction of apoptosis in human MOLT-4 cells assessed as viable cells at 10 nM measured after 48 hrs by Alexa Fluor 647-Annexin V/propidium iodide staining based flow cytometry (reference value: 97.1 to 97.3%); assay type: functional; details: read-out: Activity
MOLT-4 [18] = assay: Induction of apoptosis in human MOLT-4 cells assessed as early apoptotic cells at 10 nM measured after 48 hrs by Alexa Fluor 647-Annexin V/propidium iodide staining based flow cytometry (reference value: 1.5 to 1.7%); assay type: functional
MOLT-4 [19] = assay: Induction of apoptosis in human MOLT-4 cells assessed as late apoptotic cells at 10 nM measured after 48 hrs by Alexa Fluor 647-Annexin V/propidium iodide staining based flow cytometry (reference value: 1.1 to 1.4%); assay type: functional
MOLT-4 [20] = assay: Induction of apoptosis in human MOLT-4 cells assessed as necrotic cells at 10 nM measured after 48 hrs by Alexa Fluor 647-Annexin V/propidium iodide staining based flow cytometry (reference value: 0.3 to 0.4%); assay type: functional
MOLT-4 [21] = assay: Induction of apoptosis in human MOLT-4 cells assessed as viable cells at 100 nM measured after 48 hrs by Alexa Fluor 647-Annexin V/propidium iodide staining based flow cytometry (reference value: 97.1 to 97.3%); assay type: functional; details: read-out: Activity
MOLT-4 [22] = assay: Induction of apoptosis in human MOLT-4 cells assessed as early apoptotic cells at 100 nM measured after 48 hrs by Alexa Fluor 647-Annexin V/propidium iodide staining based flow cytometry (reference value: 1.5 to 1.7%); assay type: functional
MOLT-4 [23] = assay: Induction of apoptosis in human MOLT-4 cells assessed as late apoptotic cells at 100 nM measured after 48 hrs by Alexa Fluor 647-Annexin V/propidium iodide staining based flow cytometry (reference value: 1.1 to 1.4%); assay type: functional
MOLT-4 [24] = assay: Induction of apoptosis in human MOLT-4 cells assessed as necrotic cells at 100 nM measured after 48 hrs by Alexa Fluor 647-Annexin V/propidium iodide staining based flow cytometry (reference value: 0.3 to 0.4%); assay type: functional
MOLT-4 [25] = assay: Induction of apoptosis in human MOLT-4 cells assessed as viable cells at 100 nM measured after 48 hrs in presence of pan-caspase inhibitor QVD by Alexa Fluor 647-Annexin V/propidium iodide staining based flow cytometry (reference value: 97.1 to 97.3%); assay type: functional; details: read-out: Activity
MOLT-4 [26] = assay: Induction of apoptosis in human MOLT-4 cells assessed as early apoptotic cells at 100 nM measured after 48 hrs in presence of pan-caspase inhibitor QVD by Alexa Fluor 647-Annexin V/propidium iodide staining based flow cytometry (reference value: 1.5 to 1.7%); assay type: functional
MOLT-4 [27] = assay: Induction of apoptosis in human MOLT-4 cells assessed as late apoptotic cells at 100 nM measured after 48 hrs in presence of pan-caspase inhibitor QVD by Alexa Fluor 647-Annexin V/propidium iodide staining based flow cytometry (reference value: 1.1 to 1.4%); assay type: functional
MOLT-4 [28] = assay: Induction of apoptosis in human MOLT-4 cells assessed as necrotic cells at 100 nM measured after 48 hrs in presence of pan-caspase inhibitor QVD by Alexa Fluor 647-Annexin V/propidium iodide staining based flow cytometry (reference value: 0.3 to 0.4%); assay type: functional
[29] = target: T2, Cereblon/Ikaros (Homo sapiens) (UniProt Q96SW2+Q13422); assay: Protac activity at CRBN/IKZF1 in human MOLT-4 cells assessed as induction of IKZF1 degradation at 10 nM measured after 16 hrs by immunoblotting analysis; assay type: cell-based
[30] = target: T3, Protein cereblon/Zinc finger protein Aiolos (Homo sapiens) (UniProt Q96SW2+Q9UKT9); assay: Protac activity at CRBN/IKZF3 in human MOLT-4 cells assessed as induction of IKZF3 degradation at 10 nM measured after 16 hrs by immunoblotting analysis; assay type: cell-based
[31] = target: T2, Cereblon/Ikaros (Homo sapiens); assay: Protac activity at CRBN/IKZF1 in human MOLT-4 cells assessed as induction of IKZF1 degradation at 100 nM measured after 16 hrs by immunoblotting analysis; assay type: cell-based
[32] = target: T3, Protein cereblon/Zinc finger protein Aiolos (Homo sapiens); assay: Protac activity at CRBN/IKZF3 in human MOLT-4 cells assessed as induction of IKZF3 degradation at 100 nM measured after 16 hrs by immunoblotting analysis; assay type: cell-based

Activity [1]: Dose-dependent effect
DC50 [1]: 0.0025 µM
IC50 (MOLT-4 [2]): 0.0101 µM
Activity [3]: 4%
Activity [4]: inactive
IC50 (RS4-11): 0.0418 µM
IC50 (NCI-H146): 0.0253 µM
Activity [8]: Active
Activity [9]: > 96%
Activity [10]: inactive
Activity [11]: inactive
Activity [12]: inactive
Activity [13]: inactive
Activity [29]: inactive
Activity [30]: inactive
Activity [31]: Active
Activity [32]: Active
SMILES: CN(CCOCCOCCOCCNc1cccc2c1C(=O)N([C@@H]1CCC(=O)NC1=O)C2=O)CC[C@H](CSc1ccccc1)Nc1ccc(S(=O)(=O)NC(=O)c2ccc(N3CCN(CC4=C(c5ccc(Cl)cc5)CCC(C)(C)C4)CC3)cc2)cc1S(=O)(=O)C(F)(F)F
Ratio IC50 (MOLT-4 [5]): 22
IC50 at 48 h [6]: 1.22 µM
Ratio IC50 [7]: 120
Ratio IC50 [14]: 27
Activity (MOLT-4 [15]): Dose-dependent effect
Activity (MOLT-4 [16]): Dose-dependent effect
viability at 0.01 µM (MOLT-4 [17]): 21.9%
Activity (MOLT-4 [18]): 58.1%
Activity (MOLT-4 [19]): 18.7%
Activity (MOLT-4 [20]): 1%
viability at 0.1 µM (MOLT-4 [21]): 1.4%
Activity (MOLT-4 [22]): 45.5%
Activity (MOLT-4 [23]): 52.7%
Activity (MOLT-4 [24]): 0.2%
viability at 0.1 µM (MOLT-4 [25]): 23.1%
Activity (MOLT-4 [26]): 18.7%
Activity (MOLT-4 [27]): 56.7%
Activity (MOLT-4 [28]): 1.3%
